Series [1] addresses T1, human sst2 receptor sub-type (Homo sapiens, UniProt P30874).
T1 construct: host or cells: SRIF receptor expressing cell cultures (general statement only)
Put plainly: In vitro binding, human sst2 receptor sub-type (SSTR2). The settings on record: Tables 8/9: Bind SSTR2 nM. As for the experimental part:
The in vitro binding affinities for rat cortex SRIF receptors and the human sst2 receptor sub-type was assessed. Further the in vitro inhibition of the GHRH induced GH secretion in primary cultures of rat pituitary cells as well as the in vivo inhibition of GH secretion in the rat after systemic or enteral application was studied. […] Therefore, the in vivo activities of the compounds in rats with respect to inhibition of growth hormone release was also assessed. Most compounds selected were tested by enteral—intraduodenal (i.d.) application. For determination of the absolute activity and for the calculation of an enteral bioavailability, single subcutaneous (s.c.) application of intravenous (i.v.) infusion was used.

Series [2] deals with GHRH induced GH secretion in primary cultures of rat pituitary cells. Put plainly: In vitro inhibition of GHRH induced GH secretion (GH vitro +GHRH). It is filed as cell-based.
In series [3] the test system is GH secretion. Put plainly: GH secretion in vivo, rat, subcutaneous application, 1 h (basal). The settings on record: for GH vivo s.c. 1 h ID50: rat, basal GH secretion, 1 h after subcutaneous application.
Series [4] concerns GH secretion. Put plainly: GH secretion in vivo, rat, intraduodenal (enteral) application, 1 h (basal). The settings on record: for GH vivo i.d. 1 h ID50: basal GH secretion, 1 h after intraduodenal application, mostly approximate ID50 from single 10 mg/kg dose, Ø = no effect at this dose, > = extrapolated value; for enteral ID50 (GH secretion): enteral (intraduodenal) application.

The subject of series [5] is GHRH stimulated GH secretion. Put plainly: GH secretion in vivo, rat, intravenous infusion with repeated GHRH stimulation. The following applies: for GH, Ur Inf15′ +GHRH / GH, UR Inf30′ +GHRH / GH, UR Inf60′ +GHRH: Tables 8/9, urethane; for GH, Ur Inf15′ +GHRH / INFUS. + GHRH ID50 15′: 15′ of infusion; for GH, UR Inf30′ +GHRH / INFUS. + GHRH ID50 30′: 30′ of infusion; for GH, UR Inf60′ +GHRH / INFUS. + GHRH ID50 60′: 60′ of infusion; for GH vivo Inf + GHRH ID50 (mean of time points): urethane, i.v. infusion, GHRH stimulated; for INFUS. + GHRH ID50 MEAN: Table 4, mean of infusion time points; for INFUS. + GHRH ID50 15′ / INFUS. + GHRH ID50 30′ / INFUS. + GHRH ID50 60′: Table 4, urethan.

In another series the target is SS1 (Rattus norvegicus, UniProt P30680). Put plainly: SS-1 binding (Bind SS1 D.H.).
The target of another series is T2, SSTR1 (Homo sapiens, UniProt P30872).
T2 construct: host or cells: SRIF receptor expressing cell cultures (general statement only)
Put plainly: Binding SSTR1. The following applies: > = extrapolated value; read-out: Bind SSTR1.

In a further series the target is T3, SSTR3 (Homo sapiens, UniProt P32745).
T3 construct: host or cells: SRIF receptor expressing cell cultures (general statement only)
Put plainly: Binding SSTR3. The following applies: > = extrapolated value; read-out: Bind SSTR3.

For another series, the target named is T4, SSTR4 (Homo sapiens, UniProt P31391).
T4 construct: host or cells: SRIF receptor expressing cell cultures (general statement only)
Put plainly: Binding SSTR4. The settings on record: > = extrapolated value; read-out: Bind SSTR4.

A further series addresses T5, SSTR5 (Homo sapiens, UniProt P35346).
T5 construct: host or cells: SRIF receptor expressing cell cultures (general statement only)
Put plainly: Binding SSTR5. The following applies: read-out: Bind SSTR5.

Series [6] relates to GH secretion. Put plainly: Unanesthetized estradiol primed male rats, oral by gavage: GH. In kind it is in vivo, rat. The following applies: estradiol implant male rats, oral by gavage, 1 hour. The protocol:
The inhibitory effect of the compounds on GH release may also be examined after oral application to male rats with oestradiol implants. This test is carried out as follows.
A loop (length 50 mmØ3 mm) of silastic with 50 mg of oestradiol is implanted under the dorsal skin of anaesthetized male OFA rats that have a weight of ca. 300 g. At various times (1 to 6 months later), these animals, in a fasted state, are used repeatedly for tests. The test substances are active in this test at doses from 0.1 to 5 mg/kg, when GH level in the blood serum is determined by radio-immunoassay 1 and 2 hours after oral administration.
(§1) Table 5 summarizes the results obtained in the estradiol primed male rats that received the compounds orally by gavage. These rats have stabilized elevated GH plasma levels as well as increased prolactin levels. In contrast to normal untreated rats, who's prolactin secretion is not sensitive to the inhibitory effect of somatostain, in these rats the prolactin secretion is inhibited to a similar degree as the GH secretion. Therefore, the inhibitory effect can be measured on 2 different parameters, GH and prolactin. The mean enteral absorption and activity of the respective compounds are shown.

The next series concerns prolactin secretion. Put plainly: Unanesthetized estradiol primed male rats, oral by gavage: prolactin. In kind it is in vivo, rat. The settings on record: estradiol implant male rats, oral by gavage, 1 hour; ø = no effect at this dose.
Description: as §1

pIC50: −log10 of the molar value. Several values for one entry are separate records, joined by “and”; a condition that tells them apart may be missing. Equal entries are not always repeated.

T4 sequence (P31391 whole entry, species assumed): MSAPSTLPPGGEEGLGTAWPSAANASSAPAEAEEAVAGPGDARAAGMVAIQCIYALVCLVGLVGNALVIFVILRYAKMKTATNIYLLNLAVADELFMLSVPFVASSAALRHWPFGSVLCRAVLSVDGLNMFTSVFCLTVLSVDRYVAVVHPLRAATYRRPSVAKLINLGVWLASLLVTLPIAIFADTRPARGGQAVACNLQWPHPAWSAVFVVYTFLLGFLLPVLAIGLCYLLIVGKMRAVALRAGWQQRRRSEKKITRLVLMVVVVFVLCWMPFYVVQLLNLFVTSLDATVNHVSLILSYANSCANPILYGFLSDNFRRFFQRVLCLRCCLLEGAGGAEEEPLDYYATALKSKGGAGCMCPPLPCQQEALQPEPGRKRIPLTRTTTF
T3 sequence (P32745 whole entry, species assumed): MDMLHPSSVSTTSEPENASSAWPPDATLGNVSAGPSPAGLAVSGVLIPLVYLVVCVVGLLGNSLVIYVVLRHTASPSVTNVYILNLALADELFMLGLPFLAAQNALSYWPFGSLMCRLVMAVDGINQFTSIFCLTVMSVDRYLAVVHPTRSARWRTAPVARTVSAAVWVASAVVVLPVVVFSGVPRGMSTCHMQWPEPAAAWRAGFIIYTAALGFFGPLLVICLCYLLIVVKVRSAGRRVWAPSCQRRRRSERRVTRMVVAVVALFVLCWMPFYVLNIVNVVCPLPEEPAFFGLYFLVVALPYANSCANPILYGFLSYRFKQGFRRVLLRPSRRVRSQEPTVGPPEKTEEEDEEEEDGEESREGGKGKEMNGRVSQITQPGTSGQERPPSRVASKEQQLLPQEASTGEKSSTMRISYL
T1 sequence (P30874 whole entry): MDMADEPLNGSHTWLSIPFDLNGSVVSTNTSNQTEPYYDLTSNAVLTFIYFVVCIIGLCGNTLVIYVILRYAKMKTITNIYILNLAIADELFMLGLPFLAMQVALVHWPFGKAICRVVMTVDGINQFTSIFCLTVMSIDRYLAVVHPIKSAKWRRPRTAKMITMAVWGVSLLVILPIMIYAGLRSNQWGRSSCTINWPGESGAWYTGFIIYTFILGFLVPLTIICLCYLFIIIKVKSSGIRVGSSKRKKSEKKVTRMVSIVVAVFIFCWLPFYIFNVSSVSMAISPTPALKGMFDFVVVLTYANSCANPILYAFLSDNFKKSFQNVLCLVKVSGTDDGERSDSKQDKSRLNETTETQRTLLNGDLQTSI
SS1, sequence (P30680 whole entry): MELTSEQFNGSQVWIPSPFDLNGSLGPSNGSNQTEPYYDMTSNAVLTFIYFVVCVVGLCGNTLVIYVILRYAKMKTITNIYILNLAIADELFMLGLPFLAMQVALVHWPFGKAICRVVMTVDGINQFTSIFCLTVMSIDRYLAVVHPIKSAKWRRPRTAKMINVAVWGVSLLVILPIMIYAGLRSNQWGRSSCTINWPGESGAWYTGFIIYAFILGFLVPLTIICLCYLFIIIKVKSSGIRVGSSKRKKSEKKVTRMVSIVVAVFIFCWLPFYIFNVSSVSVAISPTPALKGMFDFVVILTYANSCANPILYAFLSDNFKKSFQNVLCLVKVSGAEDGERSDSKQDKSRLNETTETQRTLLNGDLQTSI
T2 sequence (P30872 whole entry, species assumed): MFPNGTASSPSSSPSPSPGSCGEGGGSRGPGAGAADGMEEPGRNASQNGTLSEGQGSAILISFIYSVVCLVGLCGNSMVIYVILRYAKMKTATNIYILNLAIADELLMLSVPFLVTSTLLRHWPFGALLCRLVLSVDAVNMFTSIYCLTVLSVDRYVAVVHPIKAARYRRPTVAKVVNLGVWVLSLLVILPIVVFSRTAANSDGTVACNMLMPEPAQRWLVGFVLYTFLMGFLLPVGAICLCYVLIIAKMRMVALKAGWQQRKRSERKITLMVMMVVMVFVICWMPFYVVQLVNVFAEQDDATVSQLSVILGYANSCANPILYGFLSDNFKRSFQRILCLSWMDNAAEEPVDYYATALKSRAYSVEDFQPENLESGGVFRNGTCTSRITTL
T5 sequence (P35346 whole entry, species assumed): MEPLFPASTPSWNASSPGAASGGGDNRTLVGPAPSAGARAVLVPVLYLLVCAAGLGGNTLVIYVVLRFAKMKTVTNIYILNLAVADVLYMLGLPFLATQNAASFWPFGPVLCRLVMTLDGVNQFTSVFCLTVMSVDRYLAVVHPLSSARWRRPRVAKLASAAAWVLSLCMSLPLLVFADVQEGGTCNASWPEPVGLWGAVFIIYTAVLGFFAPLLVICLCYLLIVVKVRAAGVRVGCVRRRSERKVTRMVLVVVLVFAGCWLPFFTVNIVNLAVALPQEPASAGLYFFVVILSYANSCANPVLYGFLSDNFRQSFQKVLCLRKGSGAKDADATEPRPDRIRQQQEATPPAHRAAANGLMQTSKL

Regarding `Cc1cccc2c(CC3C(=O)N(CCCCCN)C(=O)N3S(=O)(=O)c3ccc(Oc4ccc(O)cc4)c(C#N)c3)c[nH]c12` (stereo not shown) [Compound 14], the pIC50 in [1] was 8.24; in series [2], 7.96; at SSTR1, less than 6.00; at SSTR3 it was 6.52; on SSTR4, less than 6.00; at SSTR5 it was 6.35. Also, the “EC50 for inhibition of GH release, subcutaneous” value in the series with GH secretion [3] (applied subcutaneous) was approximately 1 mg/kg. The “GH vivo s.c. 1 h ID50” value in the series on GH secretion [3] stood at 1.16 mg/kg. Moreover, the “GH vivo i.d. 1 h ID50” value with GH secretion [4] was more than 30 mg/kg. Further, the “GH, Ur Inf15′ +GHRH” value in [5] was “˜44 μg/kg/h”. In addition, the “GH, UR Inf30′ +GHRH” value in series [5] was determined as 11.000 µg/kg/h. Besides, the “GH, UR Inf60′ +GHRH” value in series [5] was found to be 14.000 µg/kg/h. The “GH vivo Inf + GHRH ID50 (mean of time points)” value (“GH vivo Inf + GHRH ID50” for short) in series [5] was found to be 19.000 µg/kg/h. On SS1, the “Bind SS1 D.H.” value is 2.50 nM. In addition, on SS1, the “SS-1 binding pKd” value stood at 8.56.

With `Cc1cccc2c(CC3C(=O)N(CCCCCN)C(=O)N3S(=O)(=O)c3ccc(Oc4ccc(O)c(Cl)c4)c(C#N)c3)c[nH]c12` (stereo not shown) [Compound 44], the pIC50 in series [1] was 8.57. In addition, the pIC50 in series [2] is 8.77. Moreover, the “GH vivo s.c. 1 h ID50” value in the series with GH secretion [3] is 0.258 mg/kg. Moreover, the “GH vivo s.c. 1 h ID50” value in the series on GH secretion [3] (listed as 44 ch) was 0.258 mg/kg. Besides, in the series on GH secretion [4], the “GH vivo i.d. 1 h ID50” value is 9.721 mg/kg and the “enteral ID50 (GH secretion)” value is recorded as 9.7 mg/kg. In series [5], the “INFUS. + GHRH ID50 MEAN” value is 0.0432 mg/kg, the “INFUS. + GHRH ID50 15′” value was found to be 0.0724 mg/kg, the “INFUS. + GHRH ID50 30′” value came out at 0.041 mg/kg and the “INFUS. + GHRH ID50 60′” value amounted to 0.0271 mg/kg. In series [5], the “GH, Ur Inf15′ +GHRH” value was determined as 50 µg/kg/h; the “GH, UR Inf30′ +GHRH” value was found to be 30 µg/kg/h; the “GH, UR Inf60′ +GHRH” value turned out to be 21 µg/kg/h. The “GH vivo Inf + GHRH ID50” value in series [5] (listed as 44 ch) was 43.00 µg/kg/h and 32 µg/kg/h. Also, in the series with GH secretion [6], the “GH 1 H ID50” value amounted to 16 mg/kg; the “MEAN ID50 (GH and prolactin)” value came out at 16 mg/kg. In the series on prolactin secretion, the “PROLACT 1 H ID50” value is “ø10000 μg/kg”. For the same compound, the “Bind SS1 D.H.” value at SS1 came out at 1.00 nM. In addition, the pIC50 on SSTR1 was less than 6.00. Besides, the pIC50 on SSTR3 is less than 6.00. Moreover, at SSTR4, the pIC50 was less than 6.00. For the same compound, the pIC50 on SSTR5 is 6.77.

Take `N#Cc1cc(S(=O)(=O)N2C(=O)N(CCCCCN)C(=O)C2Cc2c[nH]c3ccccc23)ccc1Oc1ccc(N)cc1` (stereo not shown) [Compound 42]: the pIC50 is 7.36 in [1]; 6.59 in series [2]; 4.30 at SSTR1; 5.55 on SSTR3; 5.28 at SSTR4; 5.85 at SSTR5. Moreover, the “GH vivo i.d. 1 h ID50” value with GH secretion [4] is given as “Ø10000 μg/kg”. The “GH, Ur Inf15′ +GHRH” value in series [5] was 856.000 µg/kg/h. In series [5], the “GH, UR Inf30′ +GHRH” value worked out at 434.000 µg/kg/h. Besides, the “GH, UR Inf60′ +GHRH” value in [5] stood at 425.000 µg/kg/h. Moreover, the “GH vivo Inf + GHRH ID50” value in series [5] is 540.000 µg/kg/h.

`Cc1cccc2c(CC3C(=O)N(CCCCCN)C(=O)N3S(=O)(=O)c3ccc(Oc4ccc(O)cc4)c(CN)c3)c[nH]c12` (stereo not shown) [Compound 45]: the pIC50 in [1] was 8.52. In addition, the pIC50 in [2] was 8.29. The “GH vivo s.c. 1 h ID50” value in the series with GH secretion [3] came to 0.048 mg/kg. For the same compound, the “GH vivo s.c. 1 h ID50” value with GH secretion [3] (listed as 45 ch) worked out at 0.048 mg/kg. For the same compound, the “GH vivo s.c. 1 h ID50” value in the series with GH secretion [3] (listed as 45 dch) turned out to be 0.048 mg/kg. Further, in the series on GH secretion [4], the “GH vivo i.d. 1 h ID50” value was 11.4 mg/kg and the “enteral ID50 (GH secretion)” value was 11.4 mg/kg. Moreover, the “enteral bioavailability (from ID50 ratio)” value in the series with GH secretion [4] (intraduodenal 1 hour vs parenteral ID50) is reported as “=0/42%”. Further, in series [5], the “INFUS. + GHRH ID50 MEAN” value was found to be 0.03105 mg/kg, the “INFUS. + GHRH ID50 15′” value amounted to 0.034 mg/kg, the “INFUS. + GHRH ID50 30′” value amounted to 0.03 mg/kg and the “INFUS. + GHRH ID50 60′” value is 0.031 mg/kg. Moreover, in series [5], the “GH, Ur Inf15′ +GHRH” value is 34.000 µg/kg/h; the “GH, UR Inf30′ +GHRH” value worked out at 30.000 µg/kg/h; the “GH, UR Inf60′ +GHRH” value stood at 30.000 µg/kg/h. In addition, the “GH vivo Inf + GHRH ID50” value in series [5] (listed as 45 ch) came out at 30.000 µg/kg/h. Besides, the “GH vivo Inf + GHRH ID50” value in series [5] (listed as 45 dch) is 31.05 µg/kg/h and 30.000 µg/kg/h. For the same compound, in the series with GH secretion [6], the “GH 1 H ID50” value is 8 mg/kg; the “MEAN ID50 (GH and prolactin)” value was found to be 11.313 mg/kg. Further, in the series on prolactin secretion, the “PROLACT 1 H ID50” value came to 16 mg/kg. In addition, the “Bind SS1 D.H.” value on SS1 is 1.00 nM. Moreover, the pIC50 on SSTR1 was 5.85. At SSTR3, the pIC50 is 6.66. At SSTR4, the pIC50 is less than 6.00. In addition, the pIC50 at SSTR5 is 7.01.
